Experiments:
caspase 9 [1] = assay: Caspase 9 activity in BEAS-2B cell lysates; type: cell-based, Human; settings: 0.1 μM, 24 h
Protocol: (§1) The activity of caspase 9 and 3 was measured by incubating 20 μg cell lysates with the respective fluorogenic substrates Ac-LEHD-AMC (LEHD-AMC) or DEVD-AMC (DEVD-AMC), as reported ([Pinzón-Daza et al., 2012]). Results were expressed as nmoles AMC/mg protein.
(§2) FIGURE 7 Effects of phenol TPP-derivatives on mitochondria-dependent apoptosis. A549 and BEAS-2B cells were incubated 24 h in fresh medium (ctrl) or in medium containing 0.1 μM of 1 or 2. (A,B) The activity of caspase 9 and 3 was measured fluorimetrically, in duplicates. Data are means ± SD (n = 3). For both panels: ^∗p < 0.001 vs. A549 ctrl cells; °p < 0.001 for BEAS-2B cells vs. the corresponding condition in A549 cells. (C,D) Cell cycle distribution, measured in duplicates. Data are means ± SD (n = 3). For both panels: ^∗p < 0.001 vs. A549 ctrl cells: °p < 0.001 for BEAS-2B cells vs. the corresponding condition in A549 cells. (E) Bright field microscope analysis of cells. Magnification: 60 × objective (0.52 numerical aperture); 10 × ocular lens. Bar: 20 μM. The micrographs are representative of three experiments with similar results.

mitochondrial ROS = assay: Mitochondrial ROS (MitoSOX Red) in BEAS-2B cells; type: cell-based, Human; settings: 0.1 μM, 4 h
Protocol: The amount of ROS in mitochondrial extracts was measured fluorimetrically by incubating cell suspension at 37°C for 10 min with 10 μM of MitoSOX Red probe (Invitrogen Life Technologies), as per manufacturer’s instructions. Results were expressed as nmoles/mg mitochondrial proteins, using a calibration curve previously set with serial dilution of H2O2.
[t] Continuedof three experiments with similar results. (D) Confocal analysis of mitochondrial staining with MitoTracker® Green FM. Magnification: 60 × objective (0.52 numerical aperture); 10 × ocular lens. Bar: 10 μM. The micrographs are representative of three experiments with similar results. (E,F) The electron transport was measured spectrophotometrically in duplicates. ATP levels in mitochondrial extracts was measured by a chemiluminescence-based assay, in duplicates. Data are means ± SD (n = 3). For both panels: ^∗p < 0.001 vs. A549 ctrl cells; °p < 0.001 for BEAS-2B cells vs. the corresponding condition in A549 cells. (G,H) ROS amount in mitochondrial extracts and mitochondrial damage were measured fluorimetrically, in duplicates. Data are means ± SD (n = 3). […] There were no statistically significant differences between untreated (ctrl) and compound 1/compound 2-treated BEAS-2B cells for all the parameters analyzed in this figure.

caspase 3 = assay: Caspase 3 activity in A549 cell lysates; type: cell-based, Human; settings: 0.1 μM, 24 h
Protocol: as §1, §2

[2] = test system: human cancer cell lines and normal cells; assay: Cell viability, panel of cancer cell lines and normal cells; type: cell-based; settings: for IC50: Homo sapiens, all cancer cell lines examined; for concentrations with cytotoxic activity: cancer cell lines in vitro
Text: Human colon cancer HT29 cells, colon-derived normal fibroblast CCD-18Co cells, lung cancer A549 cells, normal human bronchial epithelial (immortalized with adenovirus 12-SV40 virus hybrid Ad12SV40) BEAS-2B cells, breast cancer MDA-MB-231 cells, normal breast epithelial MCF10A cells, human osteosarcoma U-2OS cells were purchased from ATCC (Manassas, VA, United States). Primary osteoblasts were generated as reported previously ([Buondonno et al., 2016]). HMM and HMC were primary cells stabilized in culture as described ([Aldieri et al., 2004]). The use of primary cells was approved by Ethical Committee of the San Luigi Gonzaga Hospital, Orbassano, (protocol #126/2016). All subjects gave written informed consent in accordance with the Declaration of Helsinki. Cells were maintained in medium supplemented with 10% v/v fetal bovine serum, 1% v/v penicillin-streptomycin, 1% v/v L-glutamine. Morphological analysis was performed with a bright field microscope (Leica Microsystems, Wetzlar, Germany). At least 5 fields/experimental condition were examined.
The extracellular release of LDH, considered an index of cell damage and necrosis, was measured spectrophotometrically, as reported ([Riganti et al., 2013b]). The extracellular medium was centrifuged at 12,000 × g for 15 min to pellet cellular debris, the cells were washed with fresh medium, detached with 0.01% trypsin/EDTA, re-suspended in 0.2 ml of 82.3 mM triethanolamine phosphate-HCl (pH 7.6), and sonicated on ice with two 10-sec bursts. LDH activity was measured in the extracellular medium and in the cell lysate: 50 μl of extracellular medium or 5 μl of cell lysate were incubated at 37°C with 5 mM NADH. The reaction was started by adding 20 mM pyruvic acid and was monitored for 6 min, measuring absorbance at 340 nm using a Synergy HT Multi-Detection Microplate Reader (Bio-Tek Instruments, Winoosky, MT, United States). The reaction kinetics were linear throughout the time of measurement. Both intracellular and extracellular enzyme activities were expressed as μmol NADH oxidized/min/dish. The results were expressed as percentage of extracellular LDH versus total (intracellular plus extracellular) LDH. Cell viability was measured by the neutral red staining method, as previously reported ([Riganti et al., 2015b]). The absorbance of untreated cells was considered as 100% viability; the results were expressed as percentage of viable cells versus untreated cells. IC50 was calculated with the CompuSyn software^1.
FIGURE 4 Effects of phenolic TPP-derivatives on the viability of cancer cell lines and normal cells. Cells were incubated 72 h in fresh medium (0) or with increasing concentrations (0.1, 1, and 10 μM) of 1 and 2. Cell viability was measured spectrophotometrically in quadruplicates. […]

[3] = test system: human cancer cell lines and normal cells; assay: Extracellular LDH release, panel of cancer cell lines and normal cells; type: cell-based; settings: 24 h, 0.1, 1 and 10 μM
Text: Human colon cancer HT29 cells, colon-derived normal fibroblast CCD-18Co cells, lung cancer A549 cells, normal human bronchial epithelial (immortalized with adenovirus 12-SV40 virus hybrid Ad12SV40) BEAS-2B cells, breast cancer MDA-MB-231 cells, normal breast epithelial MCF10A cells, human osteosarcoma U-2OS cells were purchased from ATCC (Manassas, VA, United States). Primary osteoblasts were generated as reported previously ([Buondonno et al., 2016]). HMM and HMC were primary cells stabilized in culture as described ([Aldieri et al., 2004]). The use of primary cells was approved by Ethical Committee of the San Luigi Gonzaga Hospital, Orbassano, (protocol #126/2016). […]
The extracellular release of LDH, considered an index of cell damage and necrosis, was measured spectrophotometrically, as reported ([Riganti et al., 2013b]). […] LDH activity was measured in the extracellular medium and in the cell lysate: 50 μl of extracellular medium or 5 μl of cell lysate were incubated at 37°C with 5 mM NADH. The reaction was started by adding 20 mM pyruvic acid and was monitored for 6 min, measuring absorbance at 340 nm using a Synergy HT Multi-Detection Microplate Reader (Bio-Tek Instruments, Winoosky, MT, United States). […] Both intracellular and extracellular enzyme activities were expressed as μmol NADH oxidized/min/dish. […] IC50 was calculated with the CompuSyn software^1. […]

caspase 9 [4] = assay: Caspase 9 activity in A549 cell lysates; type: cell-based, Human; settings: 0.1 μM, 24 h
Protocol: as §1, §2

A549 cells = assay: Cell cycle analysis (propidium iodide flow cytometry); type: cell-based, Human; settings: 0.1 μM, 24 h
Protocol: (§3) 1 × 10^4 cells were harvested, washed with PBS, treated with 0.25 mg/ml RNAse and stained for 15 min with 50 μg/ml propidium iodide. Cell cycle distribution was analyzed by Guava® easyCyte flow cytometer (Millipore, Billerica, MA, United States), using the InCyte software (Millipore).
as §2

BEAS-2B cells = assay: as above; type: cell-based, Human; settings: 0.1 μM, 24 h
Protocol: as §3, §2

| Structure (SMILES) | activity of caspase 9 (caspase 9 [1]) | mitochondrial ROS (mitochondrial ROS) | activity of caspase 3 (caspase 3) | IC50 [2] | concentrations with cytotoxic activity [2] | release of LDH in the extracellular medium [3] | activity of caspase 9 (caspase 9 [4]) | percentage of cells in S-phase (A549 cells) | percentage of cells in the sub-Go phase (A549 cells) | cell cycle distribution (BEAS-2B cells) |
| --- | --- | --- | --- | --- | --- | --- | --- | --- | --- | --- |
| CC(=O)Oc1ccc(C[P+](c2ccccc2)(c2ccccc2)c2ccccc2)cc1.[Br-] [Compound 1] | remained similar to untreated cells | negligible modifications | strong activation | < 10 µM | 100 to 1000 nM | dose-dependent increase | strong activation | reduced percentage | increased | no change |
| O=C(Oc1ccc(C[P+](c2ccccc2)(c2ccccc2)c2ccccc2)cc1C(F)(F)F)c1ccccc1.[Br-] [Compound 2] | remained similar to untreated cells | negligible modifications | strong activation | < 10 µM | 100 to 1000 nM | dose-dependent increase | strong activation | reduced percentage | increased | no change |

Source: publication PMC5994430, “Mitochondrial Delivery of Phenol Substructure Triggers Mitochondrial Depolarization and Apoptosis of Cancer Cells” (Frontiers in Pharmacology, 2018)
